Values joined by “and” are separate entries in the source; they are usually repeats but may differ in a detail not shown here. Equal entries are not always repeated.
Biological target: T1, Histidine--tRNA ligase (Leishmania infantum, UniProt A4I591)
T1 sequence (A4I591 whole entry): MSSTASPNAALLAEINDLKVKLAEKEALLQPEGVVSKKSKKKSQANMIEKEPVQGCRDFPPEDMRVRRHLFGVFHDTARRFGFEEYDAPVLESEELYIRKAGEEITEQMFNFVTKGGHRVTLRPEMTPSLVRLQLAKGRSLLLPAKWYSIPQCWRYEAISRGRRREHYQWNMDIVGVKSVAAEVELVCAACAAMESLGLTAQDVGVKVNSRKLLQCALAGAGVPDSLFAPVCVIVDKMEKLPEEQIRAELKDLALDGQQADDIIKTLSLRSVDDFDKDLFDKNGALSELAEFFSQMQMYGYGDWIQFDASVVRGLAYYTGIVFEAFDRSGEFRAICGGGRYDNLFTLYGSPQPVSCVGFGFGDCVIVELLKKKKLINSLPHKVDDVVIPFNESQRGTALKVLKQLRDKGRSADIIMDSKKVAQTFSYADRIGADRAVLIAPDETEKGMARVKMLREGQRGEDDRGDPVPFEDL
Test: Leishmania infantum Histidine tRNA synthetase (LdHisRS)
Type: functional

IC50 | SMILES
> 100 µM | Cc1cc(C)cc(OCCC(=O)NC2CC(=O)N(C)C2)c1 (stereo not given)
> 100 µM | O=C(c1cnccn1)N1C[C@@H]2[C@@H](C1)OCC(=O)N2CC1CCCC1
> 100 µM | c1ccc(Cn2cc(CNCC3CCCN3c3cccnn3)cn2)cc1 (stereo not given)
> 100 µM and 76.7 µM | CC(=O)N1CCN(c2ccccc2CNc2ccc3[nH]ncc3c2)CC1
> 100 µM | COc1ccc(C2SC(C)=Nc3c2c(=O)[nH]n3C2CCCC2)cc1O (stereo not given)
15 µM and 15.4 µM | CN(CCOc1ccccc1)C(=O)Nc1cccn(C)c1=O
45.1 µM and 33.5 µM | CCCc1nc(CN2CCOC(CNc3cccnn3)C2)cs1 (stereo not given)
62.6 µM and 73.7 µM | CCn1nc2c(cc1=O)CN(c1nc3ccccc3s1)CC2
49.3 µM and 51.2 µM | COc1ccc(C(=O)N2CCN(c3cc(CCN)nc(C)n3)CC2)cc1
> 100 µM | CCC1CN(CCC(=O)N(C)C)CCN1CCOC (stereo not given)
> 100 µM | Cc1cc(CNc2ccc3nc(C)sc3c2)no1
12.7 µM and 14.3 µM | CNc1[nH]nc(N)c1NC(=O)c1ccccc1
24.6 µM and 31.1 µM | Cc1nnc(NCc2ccccc2Cl)c(C#N)c1C
> 100 µM and 58.3 µM | CC(O)CNC(=O)NCc1ccc(N2CCNC(=O)C2)cc1 (stereo not given)
34.3 µM and 31.4 µM | CC(C)c1cc(N2CCC(C(C)N3CCCC3)CC2)n2nccc2n1 (stereo not given)
> 100 µM | Cn1ccnc1-c1cn(CCc2nnc(N)s2)nn1
> 100 µM | Cc1nnc(N2CCc3cnc(C(C)C)nc3C2)c(C#N)c1C
> 100 µM | CS(=O)(=O)CCOCCNc1cncc(Br)c1
41 µM and 69.9 µM | NC(=O)C1=NC2=NS(=O)(=O)c3ccccc3N2N1Cc1ccc(Br)cc1
15.1 µM and 18.7 µM | Cc1nonc1CN(C)c1nc(-c2cccnc2)nc2c1CCNC2
18.7 µM and 17.4 µM | Clc1cc(NCc2ccncc2)nc2[nH]ccc12
> 100 µM and 72.6 µM | COc1ccc(NC(=O)C2CCCO2)cc1OCc1cccnc1 (stereo not given)
23.3 µM and 28.2 µM | COc1cccc(N2CCN(Cc3cccc(CCN)c3)CC2=O)c1
46.2 µM and 45.6 µM | O=C1CC2(CCN(Cc3ccc4cccc(O)c4n3)CC2)CN1
> 100 µM | CC(O)CN1CCN(C(=O)c2ccc(Cn3cccn3)cc2)CC1 (stereo not given)
> 100 µM | CN(C)[C@@H]1C[C@@H](CO)N(C(=O)Nc2ccc(SC(F)(F)F)cc2)C1
34.4 µM and 35.9 µM | Cc1c(CN2CCCCC2)c(O)n(CCO)c(=O)c1C#N
54.6 µM and 36 µM | CNC(=O)c1cn2cc(-c3ccccc3Cl)n(CC=C(C)C)c(=O)c2n1
> 100 µM and 94.7 µM | CCOc1nnc(CNC2CCCN(c3ccc(C)nn3)C2)s1 (stereo not given)

Second part, the compound before the results:

SMILES | IC50
O=C1CCC(C(=O)Nc2ccc(=O)n(Cc3ccc(Cl)c(Cl)c3)c2)N1 (stereo not given) | 10.1 µM and 9.92 µM
c1cc2nccc(CC3CCCN(Cc4ncc[nH]4)CC3)c2cn1 (stereo not given) | > 100 µM
Cn1cccc(NC(=O)N2CCC(CSc3ccccc3)C2)c1=O (stereo not given) | 15.1 µM and 14.9 µM
COCc1ncc(-c2nccn2CCS(C)(=O)=O)cn1 | > 100 µM
CC(Nc1nc(-c2ccncc2)nc2c1CCNC2)c1ccccc1 (stereo not given) | 43.4 µM and 46.8 µM
Cc1noc(C)c1C(=O)N1CCC(Nc2cccnn2)CC1 | > 100 µM
c1cncc(NCCNC2CCSC2)c1 (stereo not given) | 31.9 µM and 23 µM
COc1ccccc1N1CCC(CNCc2cccc(OC)c2OC)C1 (stereo not given) | > 100 µM
Cc1nc(CN(C)C2CCN(Cc3ccc4ccccc4n3)C2)no1 (stereo not given) | 59.9 µM and 39.8 µM
Cc1noc(C)c1CN1CCc2nn(C(C)C)c(=O)cc2C1 | 86 µM and > 100 µM
Cc1cc(C(=O)NCC(F)(F)F)c2c(C3CCCN3)noc2n1 (stereo not given) | 38.4 µM and 70 µM
Cc1noc(C(C)Nc2ccc(N3CCOCC3)cc2C)n1 (stereo not given) | > 100 µM
Cn1nc2c(cc1=O)CN(CC(=O)Nc1nccs1)CC2 | > 100 µM
COc1cccn(CC(=O)N(C)CCOc2cc(C)cc(C)c2)c1=O | 3.92 µM and 3.35 µM
Cn1nc2c(cc1=O)CN(c1nc3ccccc3s1)CC2 | 72.4 µM and 80.9 µM
O=C(CCN1CCCC1)N1CC[C@@H](c2ccc3ccccc3c2)[C@H](O)C1 | 63.5 µM and 54.7 µM
O=C1CN(C(=O)c2cc(-c3ccco3)nc3c(Cl)cccc23)CCN1 | 18.6 µM and 19.5 µM
c1cc(-c2ccc3c(c2)C2(CC3)CCN(c3nncs3)CC2)ccn1 | 29.8 µM and 26.8 µM
CCc1ocnc1C(=O)N1CCN(c2ccc3ccccc3c2)CC1 | 57.4 µM and 54 µM
CCCn1cc(NC(=O)c2cccc3cccnc23)ccc1=O | 40.1 µM and 37.9 µM
COCCN1CCCc2sc(C(=O)NCC3CCCO3)nc21 (stereo not given) | 22.4 µM and 24.1 µM

Reference: ChEMBL document CHEMBL3988442, “University of Dundee, Small-Polar-MMV Screening Library” (2021)
